Data as given in patent US6753295B1, “Plant activator, process for producing the same, activation method, activity promoter and method for applying the promoter” (Hokkaido Green Kosan, Incorporated, priority 1999, dated 2004).

How the values were obtained:
Type in all cases: cell-based
E. coli NIHJ JC-2 = experiment: MIC, agar plate dilution method; conditions: E.coliNIHJ JC-2
Procedure: (§1) 22 strains in total, that is, 1 strain of S. aureus 209P JC-1, 20 strains of 1G-stored, clinically separated Staphylococcus (10 strains each of MSSA and MRSA), and 1 strain of E. coli NIHJ JC-2 as the standard strain.
(§2) MW:168, methicilin (DMPPC, staphcililn for injection, Lot. No. FSB […], Banyu Pharmaceutical Co., Ltd.), vancomycin (VCM, Lot. No. 41H0457, 10750, SIGMA).
(§3) Mueller-Hinton agar (MIA, Difco) was used for measurement of antimicrobial properties, and Mueller Hinton broth (MHB, Difco) was used for pre-cultivation.
(§4) The minimum inhibitory concentration (MIC) of each chemical against the used strain was determined according to an agar plate dilution method in accordance with the standard methods of Japanese Society of Chemotherapy. The strain was sprayed onto MHA and cultured at 37° C. overnight, and the resultant colonies were cultured in MHB at 37° C. overnight, and its microbial liquid was diluted 100-fold (1000-fold dilution for E. coli) and used as inoculation liquid.

S. aureus 209P JC-1 = experiment: MIC, agar plate dilution method; conditions: S.aureu209P JC-1
Procedure: as §1, §2, §3, §4

[1] = system: clinically separated Staphylococcus (MSSA and MRSA); experiment: MIC, agar plate dilution method
Procedure: as §1, §2, §3, §4

Erwinia sp. = experiment: paper disk bioassay of the purified product against bacteria; conditions: 1000, 500 and 250 ppm; 37° C., 18 hours
Procedure: (§5) An agar medium containing a test bacterium was placed in a Petri dish and fixed therein. A paper disk containing the sample was placed thereon and incubated at 37° C. for 18 hours, and formation of a circle of inhibited growth was confirmed.
(§6) The following 4 strains were used: Staphylococcus aureus 209P, Pseudomonas syringal, Xanthomonoas Campestris pv. citri, and Erwinia sp.
(§7) For pre-culture, a bouillon medium (DIFCO) was used, and after overnight cultivation, the cultivation medium was diluted at ×10^2 and mixed with 0.5% upper-layer medium. As the medium for measuring the bacterium, Mycin agar (Mikumi Kagaku) was used.
(§8) Upper layer−1.5% Mycin agar (Mikuni Kagaku)+0.5% Mycin agar mixed with the overnight cultivation (diluted at ×10^2) in 2% bouillon medium (DIFCO)
(§9) Lower layer−2.0% Mycin agar (Mikuni Kagaku)
(§10) A paper disk was impregnated with the isolated and purified product prepared at 1000 ppm, 500 ppm and 250 ppm respectively was air-dried, placed on the Petri dish and incubated at 37° C. for 18 hours, and whether a circle of inhibited growth was formed or not was observed.

Pseudomonas syringal = experiment: as above; conditions: 1000, 500 and 250 ppm; 37° C., 18 hours
Procedure: as §5, §6, §7, §8, §9, §10

[2] = system: Staphylococcus aureus 209P; experiment: as above; conditions: 1000, 500 and 250 ppm; 37° C., 18 hours
Procedure: as §5, §6, §7, §8, §9, §10

[3] = system: Xanthomonoas Campestris pv. citri; experiment: as above; conditions: 1000, 500 and 250 ppm; 37° C., 18 hours
Procedure: as §5, §6, §7, §8, §9, §10

SMILES | MIC (E. coli NIHJ JC-2) | MIC (S. aureus 209P JC-1) | MIC ([1]; MRSA TH948) | MIC ([1]; MRSA TH949) | MIC ([1]; MRSA TH950) | MIC ([1]; MRSA TH951) | MIC ([1]; MRSA TH952) | MIC ([1]; MRSA TH953) | MIC ([1]; MRSA TH954) | MIC ([1]; MRSA TH955) | MIC ([1]; MRSA TH956) | MIC ([1]; MRSA TH957) | MIC ([1]; MRSA TH972) | MIC ([1]; MRSA TH973) | MIC ([1]; MRSA TH974) | MIC ([1]; MRSA TH975) | MIC ([1]; MRSA TH976) | MIC ([1]; MRSA TH1350) | MIC ([1]; MRSA TH1351) | MIC ([1]; MRSA TH1352) | further results
COc1cccc(OC)c1C(=O)N[C@@H]1C(=O)N2[C@@H]1SC(C)(C)[C@@H]2C(=O)O [DMPP, methicilin] | 3.13 micro gram/ml | 1.56 micro gram/ml | 1.56 micro gram/ml | 3.13 micro gram/ml | 3.13 micro gram/ml | 3.13 micro gram/ml | 1.56 micro gram/ml | 3.13 micro gram/ml | 3.13 micro gram/ml | 1.56 micro gram/ml | 3.13 micro gram/ml | 1.56 micro gram/ml | >12.5 micro gram/ml | >12.5 micro gram/ml | >12.5 micro gram/ml | >12.5 micro gram/ml | >12.5 micro gram/ml | 12.5 micro gram/ml | 6.25 micro gram/ml | >12.5 micro gram/ml | MIC ([1]; MRSA TH1353): >12.5 micro gram/ml; MIC ([1]; MRSA TH1354): >12.5 micro gram/ml
O=C(O)/C=C/C1=CC(=O)CC1O (centres unmarked) [MW168, 3(3-hydroxy-cyclopropene 5-one-2-yl)2-propenoic acid] | >50 micro gram/ml | >50 micro gram/ml | >50 micro gram/ml | >50 micro gram/ml | >50 micro gram/ml | >50 micro gram/ml | >50 micro gram/ml | >50 micro gram/ml | >50 micro gram/ml | >50 micro gram/ml | >50 micro gram/ml | >50 micro gram/ml | >50 micro gram/ml | >50 micro gram/ml | >50 micro gram/ml | >50 micro gram/ml | >50 micro gram/ml | >50 micro gram/ml | >50 micro gram/ml | >50 micro gram/ml | circle of inhibited growth / activity against the bacteria (Erwinia sp.): no or less activity; circle of inhibited growth / activity against the bacteria (Pseudomonas syringal): no or less activity; circle of inhibited growth / activity against the bacteria [2]: no or less activity; circle of inhibited growth / activity against the bacteria [3]: no or less activity; MIC ([1]; MRSA TH1353): >50 micro gram/ml; MIC ([1]; MRSA TH1354): >50 micro gram/ml; antimicrobial properties against Staphylococcus ([1]; concentrations used 50˜0.10 micro gram/ml): no or less activity
CN[C@H](CC(C)C)C(=O)N[C@H]1C(=O)N[C@@H](CC(N)=O)C(=O)N[C@H]2C(=O)N[C@H]3C(=O)N[C@H](C(=O)N[C@H](C(=O)O)c4cc(O)cc(O)c4-c4cc3ccc4O)[C@H](O)c3ccc(c(Cl)c3)Oc3cc2cc(c3O[C@@H]2O[C@H](CO)[C@@H](O)[C@H](O)[C@H]2O[C@H]2C[C@](C)(N)[C@H](O)[C@H](C)O2)Oc2ccc(cc2Cl)[C@H]1O [VCM, vancomycin] | >6.25 micro gram/ml | 0.78 micro gram/ml | 0.78 micro gram/ml | 0.78 micro gram/ml | 0.78 micro gram/ml | 0.78 micro gram/ml | 0.78 micro gram/ml | 0.78 micro gram/ml | 0.78 micro gram/ml | 0.78 micro gram/ml | 0.78 micro gram/ml | 0.78 micro gram/ml | 0.78 micro gram/ml | 0.78 micro gram/ml | 0.78 micro gram/ml | 0.78 micro gram/ml | 0.78 micro gram/ml | 0.78 micro gram/ml | 0.78 micro gram/ml | 0.78 micro gram/ml | MIC ([1]; MRSA TH1353): 0.78 micro gram/ml; MIC ([1]; MRSA TH1354): 0.78 micro gram/ml
